Data as given in US8592161B2, “Mutational profiles in HIV-1 protease correlated with phenotypic drug resistance” (Janssen R&D Ireland, priority 2002, dated 2013).
Read-outs that look alike come from different tables or passages of the source.

Legend:
Type in all cases: cell-based
[1] = system: HIV-1/LAI; test: In vitro antiviral activity in acutely infected MT4 cells, wild type; conditions: read-out: median EC50
Experimental: (§1) Determination of the antiviral activity of a compound was done as described in Pauwels R. et al. (J Virol Methods 1988; 20(4):309-21). Various concentrations of the test compounds were brought into each well of a flat-bottom microtiter plate. Subsequently, HIV and MT4 cells were added to a final concentration of 200-250 50% cell culture infectious doses (CCID50)/well and 30,000 cells/well, respectively. After 5 days of incubation (37° C., 5% CO2), the cytopathic effect of the replicating virus was determined by the tetrazolium colorimetric MTT method. The dose protecting 50% of the cells from virus cytopathic effect was defined as the EC50, while the dose achieving 90% protection was defined as the EC90.
(§2) MT4-LTR-EGFP cells were infected at a multiplicity of infection (MOI) of 0.01 to 0.001 CCID50/cell in the presence of inhibitor. The starting concentration of the inhibitor was two to tee times the EC50, a suboptimal concentration. The cultures were sub-cultivated and scored microscopically on virus-induced fluorescence and cytopathicity every 3-4 days. The cultures were sub-cultivated in the presence of the same compound concentration until signs of virus replication were observed. The escaping virus was further cultivated in the presence of the same inhibitor concentration in order to enrich the population in resistant variants. If full virus breakthrough was observed the supernatant was collected and stored (new virus strain). Afterwards, the same virus was challenged with a higher compound concentration in order to select variants able to grow in the presence of as high as possible inhibitor concentrations. From the new viruses, a virus stock was grown in the absence of inhibitor.
(§3) In vitro drug selection experiments starting from wild-type HIV-1 under pressure of compound 1, compound 2, and Nelfinavir (NFV) have been performed. Tables 1, 2, 3, 4, and 5 show the genotypic and phenotypic characterization of the selected strains.

[2] = system: HIV-1/LAI strain selected with Compound 1 (100 nM, 97 days), protease R41T K70E; test: In vitro antiviral activity in acutely infected MT4 cells, selected strain; conditions: for EC50: Human immunodeficiency virus 1, Table 1, strain R41T K70E (Compound 1 100 nM, 97 days), read-out: median EC50; for median FC (fold change in EC50 as compared to wild type): Table 1, strain R41T K70E (Compound 1 100 nM, 97 days)
Experimental: as §1
as §2, with “The cultures were sub-cultivated in the presence of the same compound concentration until signs of virus replication were observed.” left out, “Afterwards, the same virus was challenged with a higher compound concentration in order to select variants able to grow in the presence of as high as possible inhibitor concentrations.” left out

[3] = system: HIV-1/LAI strain selected with Compound 2 (100 nM), protease R41I; test: as above; conditions: Human immunodeficiency virus 1, Table 3, R41I strain selected with Compound 2 100 nM (head lists 116, 200, 264 days; assignment unclear), read-out: median EC50
Experimental: as §1
as §2, with “The cultures were sub-cultivated in the presence of the same compound concentration until signs of virus replication were observed.” left out, “Afterwards, the same virus was challenged with a higher compound concentration in order to select variants able to grow in the presence of as high as possible inhibitor concentrations.” left out

[4] = system: HIV-1/LAI strain selected with NFV (3000 nM, 69 days), protease L10F D30N M46I V77I I85V/I N88D/N; test: as above; conditions: for EC50: Human immunodeficiency virus 1, Table 5, strain L10F D30N M46I V77I I85V/I N88D/N (NFV 3000 nM, 69 days), read-out: median EC50; for median FC (fold change in EC50 as compared to wild type): Table 5, strain L10F D30N M46I V77I I85V/I N88D/N (NFV 3000 nM, 69 days)
Experimental: as §1, §2, §3

[5] = Human immunodeficiency virus 1, MT4, Table 1, wild-type HIV/LAI
[6] = Human immunodeficiency virus 1, MT4, Table 2, wild-type HIV-1/LAI
[7] = Human immunodeficiency virus 1, MT4, Table 3, wild-type HIV-1/LAI
[8] = Human immunodeficiency virus 1, MT4, Table 4, wild-type HIV-1/LAI
[9] = Human immunodeficiency virus 1, MT4, Table 5, wild-type HIV-1/LAI

| Structure (SMILES) | EC50 [1, 5] [nM] | EC50 [1, 6] [nM] | EC50 [1, 7] [nM] | EC50 [1, 8] [nM] | EC50 [1, 9] [nM] | EC50 [2] [nM] | median FC (fold change in EC50 as compared to wild type) [2] | EC50 [3] [nM] | EC50 [4] [nM] | median FC (fold change in EC50 as compared to wild type) [4] |
| --- | --- | --- | --- | --- | --- | --- | --- | --- | --- | --- |
| CC(C)(C)NC(=O)[C@@H]1CN(Cc2cccnc2)CCN1C[C@@H](O)C[C@@H](Cc1ccccc1)C(=O)N[C@H]1c2ccccc2C[C@H]1O [Indinavir] | 28 | 12 | 12 | 12 | 12 | 98 | 4 | 47 |  |  |
| CC(C)(C)NC(=O)[C@@H]1C[C@@H]2CCCC[C@@H]2CN1C[C@@H](O)[C@H](Cc1ccccc1)NC(=O)[C@H](CC(N)=O)NC(=O)c1ccc2ccccc2n1 [Saquinavir] | 7.8 | 5.6 | 5.6 | 5.6 | 5.6 | 35 | 4 | 45 | 2.5 | 0 |
| CC(C)CN(C[C@@H](O)[C@H](Cc1ccccc1)NC(=O)O[C@H]1CCOC1)S(=O)(=O)c1ccc(N)cc1 [Amprenavir] | 36 | 20 | 20 | 20 | 20 | 29 | 1 | 8.4 | 59 | 3 |
| Cc1c(O)cccc1C(=O)N[C@@H](CSc1ccccc1)[C@H](O)CN1C[C@H]2CCCC[C@H]2C[C@H]1C(=O)NC(C)(C)C [Nelfinavir] | 30 | 38 | 38 | 38 | 38 | 18 | 1 | 14 |  |  |
